This is an account of results in US12268683B2, “Compounds and methods for synergistic activation of M channels” (THE REGENTS OF THE UNIVERSITY OF CALIFORNIA, priority 2018, dated 2025).

One data set addresses KCNQ2-W236L/KCNQ3 (Homo sapiens, UniProt O43525+O43526, W236L). The data set can be described thus: TEVC of KCNQ2-W236L/KCNQ3 channels. Format: cell-based. An excerpt: (§1) As previously described (12), we generated cRNA transcripts encoding human KCNA1, KCNE1, KCNE2, KCNE3, KCNQ1, KCNQ2, KCNQ3, KCNQ4 or KCNQ5 by in vitro transcription using the T7 polymerase mMessage mMachine kit (Thermo Fisher Scientific), after vector linearization, from cDNA sub-cloned into plasmids incorporating Xenopus laevis β-globin 5′ and 3′ UTRs flanking the coding region to enhance translation and cRNA stability. We quantified cRNA by spectrophotometry. We generated mutant KCNQ2 and KCNQ3 cDNAs by site-directed mutagenesis with a QuikChange kit (Stratagene, San Diego, Calif.) and prepared the cRNAs as above. We injected defolliculated stage V and VI Xenopus laevis oocytes (Ecocyte Bioscience, Austin, Tex. and Xenoocyte, Dexter, Mich., US) with KCNE and/or KCNQ cRNAs (5-20 ng). We incubated the oocytes at 16° C. in Barth's saline solution (Ecocyte) containing penicillin and streptomycin, with daily washing, for 3-5 days prior to two-electrode voltage-clamp (TEVC) recording.
We performed TEVC at room temperature using an OC-725C amplifier (Warner Instruments, Hamden, Conn.) and pClamp10 software (Molecular Devices, Sunnyvale, Calif.) 2-5 days after cRNA injection as described in the section above. For recording, we placed the oocytes in a small-volume oocyte bath (Warner) and viewed them with a dissection microscope. We sourced chemicals from Sigma unless otherwise stated. We studied effects of 1% cilantro extract and of nine compounds previously identified in cilantro extract. Vanillic acid and 3,4-Dihydroxybenzoic acid were each solubilized in 100% ethanol at a stock concentration of 100 mM; the other compounds were solubilized directly in bath solution. We initially screened for KCNQ2/3 channel activity using 100 μM concentrations of each of the nine components, then conducted dose responses where appropriate. […] We recorded currents in response to voltage pulses between −120 or −80 mV and +40 mV at 20 mV intervals from a holding potential of −80 mV, to yield current-voltage relationships, current magnitude, and for quantifying activation rate. We analyzed data using Clampfit (Molecular Devices) and Graphpad Prism software (GraphPad, San Diego, Calif., USA); values are stated as mean±SEM. […]
We generated cRNA transcripts encoding human KCNQ1, KCNQ2, KCNQ3, KCNQ4, KCNQ5 or GLRA1 (NM_001146040) (GenScript, Piscataway, N.J., USA) by in vitro transcription using the T7 polymerase mMessage mMachine kit (Thermo Fisher Scientific), after vector linearization, from cDNA sub-cloned into plasmids incorporating Xenopus laevis β-globin 5′ and 3′ UTRs flanking the coding region to enhance translation and cRNA stability. We quantified cRNA by spectrophotometry. […]

The subject of the next data set is bacteria. To be noted: read-out: bactericidal activity EC50; cited from earlier work.
A further data set deals with KCNQ2-R213A/KCNQ3 (Homo sapiens, UniProt O43525+O43526, R213A). The data set can be described thus: TEVC of KCNQ2-R213A/KCNQ3 channels. In kind it is cell-based.
Excerpt: as §1, with “We incubated the oocytes at 16° C. in Barth's saline solution (Ecocyte) containing penicillin and streptomycin, with daily washing, for 3-5 days prior to two-electrode voltage-clamp (TEVC) recording.” left out
We performed TEVC at room temperature using an OC-725C amplifier (Warner Instruments, Hamden, Conn.) and pClamp10 software (Molecular Devices, Sunnyvale, Calif.) 2-5 days after cRNA injection as described in the section above. […] We recorded currents in response to voltage pulses between −120 or −80 mV and +40 mV at 20 mV intervals from a holding potential of −80 mV, to yield current-voltage relationships, current magnitude, and for quantifying activation rate. We analyzed data using Clampfit (Molecular Devices) and Graphpad Prism software (GraphPad, San Diego, Calif., USA); values are stated as mean±SEM. […]

The conditions of data set [1]: rats fed Mallotus philippensis extract; cited from earlier work.

As for `CS(=O)(=O)N(CC(=O)O)c1cccc(F)c1` [3FMSG], at KCNQ2-W236L/KCNQ3, the “effect on KCNQ2-W236L/KCNQ3 (in words)” value is “independent of KCNQ2-W236”.
Take `CCCCCCCCC/C=C/C=O` [(E)-2-dodecenal]: the “potency reduction by KCNQ2-W236L relative to KCNQ3-W265L mutation” value at KCNQ2-W236L/KCNQ3 was 20 fold. Moreover, on KCNQ2-W236L/KCNQ3 ((E)-2-dodecenal), the “maximal shift in ΔV0.5activation” value is recorded as −9 mV. Moreover, the EC50 is 5.07 ± 0.5 µM on KCNQ2-W236L/KCNQ3 (ΔV0.5activation, read-out: EC50 of (E)-2-dodecenal) and more than 30 µM in the data set on bacteria. The “effect on KCNQ2-R213A/KCNQ3 (in words)” value at KCNQ2-R213A/KCNQ3 was “completely insensitive”.
In the case of `CC(=O)c1c(O)c(C)c(O)c(Cc2c(O)c3c(c(C(=O)/C=C/c4ccccc4)c2O)OC(C)(C)C=C3)c1O` [MTX, mallotoxin], in data set [1], the oral bioavailability is more than 20% and the plasma concentration entry is reported as “exceeded 2 μg/ml”.

As usually defined, the EC50 is the midpoint of the concentration-response curve.
